Legend:
[1] = test system: Runx3; test: Runx3 immunoblot after histone deacetylase inhibitor treatment; assay type: cell-based, murine; settings: KPD carcinoma cells; TSA at 0, 10, or 40 μM; 48 hours of treatment
Protocol: To directly test of this potential involvement of Hdac5 in the post-translational control mechanism of Runx3, a histone deacetylase inhibitor was used to determine whether Runx3 levels increased when deacetylation of Runx3 by Hdac5 was minimized or abrogated (i.e., whether the acetylation level of Runx3 does in fact affect physiologic degradation). Briefly, cells (4×10^5) were plated in 60 cc dishes and trichostatin A (TSA) (Tocris Biosciences, MO, USA), an Hdac5 inhibitor, was added at 0, 10, or 40 μM at 24 hours. Total RNA or whole cell lysates were prepared as described herein after 48 hours of treatment, and the latter resolved on 4-12% Bis-Tris gels, transferred to PVDF and probed with Runx3 antibody.

[2] = test system: Runx3 complexes with Smad2 and Smad4; test: Smad2 immunoprecipitation of Runx3 complexes, KPD; assay type: cell-based, murine; settings: KPD cells, incubated with TGFβ prior to lysis
Protocol: (§1) To examine whether the transcriptional activity of Runx3 was exercised in complex with Smad4/Dpc4, immunoprecipitation assays were performed. Briefly, cells were lysed by sonication in 20 mM HEPES (pH 7.5), 400 mM KCl, 5% Glycerol, 5 mM EDTA, 0.4% Np40, supplemented with 1×protease inhibitor (Sigma, MO, USA), phosphotase inhibitor cocktails I and II (Sigma, MO, USA), and the lysates cleared by centrifugation. Extracts were diluted to 20 mM HEPES (pH 7.8), 50 mM KCl, 5% Glycerol, 2.5 mM MgCl2, 0.05% NP40 and incubated with Smad2 antibody (2.5 μg/ml from AbCam, Cambridge Mass., USA) and Protein A-Sepharose beads for 4 hours at 4° C. Beads were washed and co-purified proteins liberated in boiling Laemmli buffer and analyzed by immunoblot with the appropriate primary antibody. ExactaCruz secondary antibodies (Santa Cruz biotechnology) were used to reduce background from IgG.

[3] = test system: Panc-1 cells; test: Scratch wound migration assay, Panc-1; assay type: cell-based, human
Protocol: (§2) In addition to examining EMT, carcinoma cells were examined for their ability to migrate. For migration assays, cells were first incubated in the presence or absence of TGFβ (5 ng/ml) for 60 hours to achieve growth arrest (in order to separate out effects of proliferation rather than migration; see Izeradjene et al., 2007), then serum starved for 8 hours. Confluent cultures were scratched with a 20 μl pipette tip to generate a wound in three horizontal stripes per well; each experimental condition was performed in triplicate wells. All experiments were conducted in triplicate at least 3 independent times on at least 2 different cell lines from each genetic background. A minimum of six points across each wound were assessed independently by two investigators at the indicated time intervals for the presence of cells within the expanse. Representative photographs were taken from a minimum of 6-8 separate high power fields. For all assays, media was replaced every 24 hours with or without TGFβ and photographed every 24 hours.
(§3) As an initial analysis, the human pancreas cancer cell lines were tested in the scratch wound migration assay described herein. The basal levels of RUNX3 in these human PDA cell lines correlated with their migratory potential, as MiaPaCa-2 cells migrated far less well than CFPAC-1 and Panc-1 cells (FIG. 9B). […]

[4] = test system: KPD PDA cells; test: EMT immunofluorescence (actin stress fibers, E-cadherin), KPD; assay type: cell-based, murine
Protocol: First, KPD pancreas cancer cells were probed by immunofluorescence for their ability to undergo epithelial-to-mesenchymal transition (EMT), a program of morphological and molecular changes implicated in the metastatic phenotype. Briefly, cells were grown on glass cover slips and treated for 72 hours in the presence or absence of TGFβ (5 ng/ml); media was replaced every 24 hours. For E-cadherin immunofluorescence, cells were fixed in ice cold methanol:acetone (1:1) for 15 minutes. For F-actin IF, cells were fixed in 4% paraformaldehyde for 30 minutes at RT followed by brief rinse in 0.15M glycine to quench the PFA. After fixation, the cells were washed with PBS and blocked for 1 hour at RT with 2% fatty acid-free BSA/2.5% goat serum. Cells were incubated with E-cadherin primary antibody (1:200, BD Biosciences) or Alexafluor488 F-actin (1:1000) for 1 hour at RT. Alexafluor 488 secondary antibody was used to visualize E-cadherin antibody. Cells were counterstained with DAPI and the slips mounted with Prolong Gold Anti-fade (Invitrogen, CA, USA). Images were acquired using a Nikon Eclipse 80i microscope with NIS Elements Software (Nikon, v3.1).

[5] = test system: KP primary carcinoma cells; test: Scratch wound migration assay, KP; assay type: cell-based, murine
Protocol: as §2, with “For all assays, media was replaced every 24 hours with or without TGFβ and photographed every 24 hours.” left out
(§4) Dpc4 expression was knocked down using a short hairpin RNA (shRNA) sequence (GAUUAACACUGCAGAGUAA, SEQ ID NO.: 19) targeting murine DPC4 procured in a pGIPZ vector (Open Biosystems). […] DPC4 transcript levels in murine cell lines were analyzed by qRT-PCR using the Taq-man assay per the manufacturer's recommendations (Applied Biosystems, CA, USA) with GAPHD as an internal control.

[6] = test system: KP PDA cells; test: EMT immunofluorescence (actin stress fibers, E-cadherin), KP; assay type: cell-based, murine
[7] = test system: CFPAC-1 cells; test: Scratch wound migration assay, CFPAC-1; assay type: cell-based, human; settings: CFPAC1 cells
Protocol: as §2, §3

[8] = test system: MiaPaCa-2 cells; test: Scratch wound migration assay, MiaPaCa-2; assay type: cell-based, human; settings: TGFβ
Protocol: as §2, §3

[9] = test system: KPD primary carcinoma cells; test: Scratch wound migration assay, KPD; assay type: cell-based, murine
Protocol: as §2, with “For all assays, media was replaced every 24 hours with or without TGFβ and photographed every 24 hours.” left out
as §4

[10] = test system: Runx3 complexes with Smad2 and Smad4; test: Smad2 immunoprecipitation of Runx3 complexes, KP; assay type: cell-based, murine; settings: KP cells, incubated with TGFβ prior to lysis
Protocol: as §1

[11] = test system: KPD cells; test: Cell proliferation assay; assay type: cell-based, murine; settings: TGFβ 5 ng/ml
Protocol: For immunocytochemistry, the primary antibody used was Ki-67 (1:25, Dako, Calif., USA), which is a marker of proliferating cells. For cell proliferation assays, equal numbers of murine or human cells (30,000) were plated in triplicate for each cell line and incubated in the presence or absence of TGFβ (5 ng/ml, R&D Systems, USA). Cells were counted manually at 24 hour intervals. Data points represent the mean±SEM of triplicate determinations from at least 3 independent experiments. All experiments were conducted in triplicate at least 3 independent times on at least 2 different cell lines from each genetic background. Representative photographs were taken from a minimum of 6-8 separate high power fields. For all assays, media was replaced every 24 hours with or without TGFβ and photographed every 24 hours.

[12] = test system: KPD cells; test: Tail vein pulmonary metastasis assay in nude mice, KPD cells; assay type: in vivo, nude mice (Athymic NCr-nu/nu); settings: KPD cells with complete knockdown of Dpc4, tail vein injection
Protocol: (§5) Purified KP and KPD carcinoma cells were also injected into the circulation of immunocompromised mice and scored for their ability to form pulmonary metastases. Briefly, murine cells were studied in a classical tail vein metastasis assay in nude mice (Athymic NCr-nu/nu). At least 3 animals were injected (1×10^5 or 1×10^6 cells/injection, depending on the experiment) for each independently derived cell line and all experiments were performed at least twice. […] Metastatic disease burdens were assessed as a ratio of cross-sectional area occupied by tumor to whole lung area using ImageJ software (NIH).
as §4, with “Biosystems). A control sequence (scrambled, scr) was used as a negative control. High-titer lentivirus was made and PDA cells were infected and selected for stable expression of the DPC4-specific shRNA. Knockdown was confirmed by qRT-PCR.” for “Biosystems).”

[13] = test system: Runx3; test: Runx3 immunoblot after targeted depletion of Smad4; assay type: cell-based, murine; settings: KPD cells; converse of the increase seen with Smad4 over-expression
Protocol: For immunoblot analysis, whole cell lysates were prepared using 1×RIPA buffer (Millipore, CA, USA) supplemented with 1×protease inhibitor (Sigma, MO, USA) and phosphotase inhibitor cocktails I and II (Sigma, MO, USA). For immunoblot experiments, 20 μg (murine) or 30 μg (human) whole cell protein lysate were separated on a 4-12% Bis-tris gel system (Invitrogen, CA, USA) and transferred to PVDF membrane (Millipore, CA, USA). Primary antibodies used were Dpc4, p16, p19, Actin (all at 1:2000, Santa Cruz, Calif., USA), and p53 (1:1000, Vector Lab, CA, USA).
(§6) Dpc4 expression was knocked down using a short hairpin RNA (shRNA) sequence (GAUUAACACUGCAGAGUAA, SEQ ID NO.: 19) targeting murine DPC4 procured in a pGIPZ vector (Open Biosystems). A control sequence (scrambled, scr) was used as a negative control. High-titer lentivirus was made and PDA cells were infected and selected for stable expression of the DPC4-specific shRNA. Knockdown was confirmed by qRT-PCR. Briefly, total RNA was reverse transcribed using the high capacity cDNA synthesis kit (Applied Biosystems, CA, USA) and qRT-PCR performed using SYBER green supermix (Bio-Rad, VA, USA) on a CFX-96 thermal cycler. […] DPC4 transcript levels in murine cell lines were analyzed by qRT-PCR using the Taq-man assay per the manufacturer's recommendations (Applied Biosystems, CA, USA) with GAPHD as an internal control.

[14] = test system: KP cells; test: Tail vein pulmonary metastasis assay in nude mice, KP cells; assay type: in vivo, nude mice (Athymic NCr-nu/nu); settings: KP cells with Dpc4 extinguished, tail vein injection
Protocol: as §5
as §6, with “qRT-PCR.” for “qRT-PCR. Briefly, total RNA was reverse transcribed using the high capacity cDNA synthesis kit (Applied Biosystems, CA, USA) and qRT-PCR performed using SYBER green supermix (Bio-Rad, VA, USA) on a CFX-96 thermal cycler.”

[15] = test system: COL6A1; test: COL6A1 expression by qRT-PCR; assay type: cell-based, human; settings: shRUNX3 transfected Panc-1 cells vs scrambled
Protocol: (§7) Human RUNX3 was cloned into pBABE hygromycin vector and stable RUNX3 expressing HEK293T cells were prepared using a similar protocol to that used to make the murine version. Also, shRNA sequences targeting human RUNX3 to knock down expression were procured in pGIPZ vectors (Open Biosystems). High-titer lentivirus was made and PDA cells were infected and selected for stable expression of the […] shRNA (SEQ ID NO.: 20, CGGCAGAAGCUGGAGGACC). Knockdown was confirmed by qRT-PCR.
Transcript levels in Runx3-overexpressing carcinoma cells were determined using qRT-PCR as described herein. The Spp1 mouse forward and reverse primers used were SEQ ID NO.:5 ([…]) and SEQ ID NO.:6 ([…]), respectively; the Col6A1 mouse forward and reverse primers were SEQ ID NO.:7 (CTGCTGCTACAAGCCTGCT) and SEQ ID NO.:8 (CTGCTGCTACAAGCCTGCT), respectively; and the COL6A1 human forward and reverse primers were SEQ ID NO.:9 ([…]) and SEQ ID NO.:10 ([…]), respectively.

[16] = test system: Panc-1 cells; test: Pulmonary metastasis assay in NOD/SCID mice; assay type: in vivo
Protocol: as §5, §7
To determine whether overexpression of RUNX3 in human PDA cells also promotes metastasis, pulmonary metastasis assays were performed using NOD/SCID mice.

CC(/C=C/C(=O)NO)=C\[C@@H](C)C(=O)c1ccc(N(C)C)cc1 [TSA, trichostatin A]
levels of Runx3 (immunoblot) [1]: raise levels of Runx3 to approximately those found in KP cells

TGFβ
Runx3/Smad2/Smad4 complex formation [2]: inhibit it | migration ([3]; TGFβ): promoted or left unaffected | EMT (actin stress fibers, surface E-cadherin) ([4]; KPD PDA cells, TGFβ 5 ng/ml, 72 hours): EMT is essentially intact | migration ([5]; TGFβ 5 ng/ml): stimulated | EMT ([6]; TGFβ 5 ng/ml, 72 hours): readily underwent TGFβ-induced EMT | migration ([7]; TGFβ): promoted or left unaffected | migration [8]: modestly inhibited the migration | migration ([9]; TGFβ 5 ng/ml): did not respond in kind | Runx3/Smad2/Smad4 complex formation [10]: favor complex formation | growth arrest (proliferation) [11]: only partially growth-arrested

shDpc4: short hairpin RNA (GAUUAACACUGCAGAGUAA, SEQ ID NO.: 19) targeting murine DPC4 in a pGIPZ vector
metastatic potential [12]: enhanced their metastatic potential | EMT in response to TGFβ ([4]; KPD carcinoma cells, complete loss of Dpc4 expression by shRNA): some morphological features of EMT in response to TGFβ also persisted | Runx3 levels (immunoblot) [13]: had the converse effect | migration ([5]; Dpc4 depleted by shRNA): migration increased slightly | EMT in response to TGFβ ([6]; late ablation of Dpc4 by shRNA): did not completely prevent EMT | metastatic potential [14]: did not diminish their already considerable metastatic potential | basal migratory behavior ([9]; complete ablation of Dpc4 expression by shRNA): increased their basal migratory behavior modestly

shRUNX3: shRNA targeting human RUNX3 (SEQ ID NO.: 20, CGGCAGAAGCUGGAGGACC) in pGIPZ vector, delivered by lentivirus
migration ([3]; stable RUNX3-specific shRNA): inhibited their migration | migration ([7]; stable RUNX3-specific shRNA): inhibited their migration | COL6A1 transcript levels [15]: reduces COL6A1 transcript levels | liver weights ([16]; NOD/SCID mice injected with RUNX3 knockdown Panc-1 cells, n=3): 0.53 ± 0.06 g | ability to seed and support secondary metastases to the liver ([16]; RUNX3-depleted Panc-1 cells in NOD/SCID mice): considerably decreased | number of lung metastases ([16]; RUNX3-knockdown vs control Panc-1 cells in NOD/SCID mice): comparable number of lung metastases

— patent US9845471B2, “Compositions and methods for treating pancreatic cancer” (Fred Hutchinson Cancer Research Center, priority 2013, dated 2017)
